According to patent publication US9181264B2, “Fused heteroaryls and their uses” (Hutchison MediPharma Limited, priority 2011, dated 2015):

What was measured:
[1] = molecular target: T1, mTOR kinase (Homo sapiens, UniProt P42345); assay: mTOR LanthaScreen TR-FRET assay; type: biochemical; conditions: 10 μmol/L ATP, GFP-4EBP1 substrate; read-out: IC50, inhibition of mTOR
T1 construct: purchased Invitrogen PV4753
Description: Compounds are tested using LanthaScreen TR-FRET Assay. The kinase reaction is completed in 384-well black plate (Corning, Cat. 3676). The final conditions for kinase assay are: 10 μmol/L of ATP, 0.2 ng/μL of mTOR kinase, 0.4 μmol/L of GFP-4EBP1 substrate and assay buffer (50 mmol/L of HEPES, pH 7.5, 0.01% of Tween 20, 1 mmol/L of EGTA, 10 mmol/L of MnCl2, 2 mmol/L of DTT and 1% DMSO).
To each well, 2.5 μL of test compounds in 4% DMSO and 2.5 μL of 0.8 ng/μL mTOR kinase (Invitrogen, PV4753) diluted in assay buffer are added. The reaction is initiated by the addition of 5 μL mixture of 0.8 μmol/L GFP-4EBP1 Substrate (Invitorgen, PV4759) and 20 μmol/L ATP mixtures. The mixture is incubated at room temperature for 60 minutes. 10 μL of 20 mmol/L EDTA and 4 nmol/L Tb-anti-p4EBP1 [pThr46] antibody (Invitrogen, PV4755) diluted in TR-FRET dilution buffer are added and incubated for an additional 1 hour. The plate is then read in a BioTek Synergy2 Reader at excitation of 340 nm and emission of 490 nm and 528 nm.
The inhibition of test compound is calculated based on the ratio of 528 nm/490 nm. IC50 of test compound is obtained using XLfit 2.0 software.

[2] = molecular target: T2, PI3Kα kinase (Homo sapiens, UniProt P42336); assay: PI3Ka Transcreener ADP assay (fluorescence polarization); type: biochemical; conditions: 10 μM ATP, 30 μmol/L lipid substrate; read-out: IC50, inhibition of PI3Kα kinase
T2 construct: purchased Invitrogen PV4788
Description: Fluorescence polarization was used in this assay. The final conditions for kinase assay are 10 μM of ATP, 0.2 ng/μL of PI3Kα kinase, 30 μmol/L of lipid substrate and assay buffer (50 mmol/L of HEPES (pH 7.5), 100 mmol/L of NaCl, 1 mmol/L of EGTA, 3 mmol/L of MgCl2, 1 mmol/L of DTT and 0.03% CHAPS and 2% DMSO).
5 μL of test compounds in 10% DMSO and 10 μL of 0.5 ng/μL PI3K kinase (Invitrogen, PV4788) in assay buffer are put into a 96-well plate (Greiner, Cat. 675076), and then the reaction is started by the addition of 10 μL of 75 μmol/L PIP2, (PS Lipid Substrate Invitrogen, PV5100), and 25 μmol/L ATP mixture. After the mixture is incubated for 60 minutes at room temperature, 25 μL of transcreener Kinase Kit reagent—ADP Detection Mix—(Bellbrook Labs) is added, and the reaction is continued for an additional 1.5 hours. At the end, the plate is read in a Tecan Infinite F500 at excitation of 610 nm and emission of 670 nm.
A standard curve for ADP is obtained in a parallel way by replacing compound and PI3Kα kinase with DMSO and assay buffer, respectively. Different concentration of ADP, 0-10 μM, and ATP, 10-0 μM (ATP+ADP equal to 10 μM) are applied instead of a fixed concentration of ATP in this standard curve assay. Other conditions are the same as described above. The standard curve is plotted using Origin 8.0 software. The inhibition of test compound on ADP production is calculated based on ADP concentration from standard curve. IC50 is obtained using XLfit 2.0 software.

T2 sequence (P42336 whole entry): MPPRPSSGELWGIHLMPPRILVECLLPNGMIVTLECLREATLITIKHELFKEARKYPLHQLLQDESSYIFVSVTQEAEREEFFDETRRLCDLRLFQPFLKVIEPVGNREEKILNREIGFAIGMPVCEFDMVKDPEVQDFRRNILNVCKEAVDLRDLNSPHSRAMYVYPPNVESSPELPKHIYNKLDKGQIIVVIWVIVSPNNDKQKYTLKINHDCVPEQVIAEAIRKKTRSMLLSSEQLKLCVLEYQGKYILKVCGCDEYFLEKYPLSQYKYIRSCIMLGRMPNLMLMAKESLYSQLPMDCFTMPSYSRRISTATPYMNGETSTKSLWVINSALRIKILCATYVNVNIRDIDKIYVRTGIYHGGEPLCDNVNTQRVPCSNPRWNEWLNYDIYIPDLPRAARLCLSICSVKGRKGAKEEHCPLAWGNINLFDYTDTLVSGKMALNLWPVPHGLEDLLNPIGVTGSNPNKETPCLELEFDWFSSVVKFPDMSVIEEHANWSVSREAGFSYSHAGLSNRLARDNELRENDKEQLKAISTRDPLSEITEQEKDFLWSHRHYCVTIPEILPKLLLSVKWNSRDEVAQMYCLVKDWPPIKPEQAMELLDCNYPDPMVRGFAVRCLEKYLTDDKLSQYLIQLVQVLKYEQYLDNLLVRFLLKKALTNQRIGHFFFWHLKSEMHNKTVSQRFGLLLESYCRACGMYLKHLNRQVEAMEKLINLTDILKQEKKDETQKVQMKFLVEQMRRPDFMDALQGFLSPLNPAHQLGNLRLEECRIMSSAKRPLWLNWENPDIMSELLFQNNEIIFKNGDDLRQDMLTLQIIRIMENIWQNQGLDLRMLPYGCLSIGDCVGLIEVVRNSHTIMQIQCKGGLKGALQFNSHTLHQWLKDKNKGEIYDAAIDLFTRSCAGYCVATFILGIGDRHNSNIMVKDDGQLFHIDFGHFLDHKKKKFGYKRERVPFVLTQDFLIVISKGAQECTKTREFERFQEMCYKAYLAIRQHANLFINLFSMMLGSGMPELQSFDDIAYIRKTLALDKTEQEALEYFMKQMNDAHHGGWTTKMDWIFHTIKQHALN
T2 sequence (P27986 whole entry partner): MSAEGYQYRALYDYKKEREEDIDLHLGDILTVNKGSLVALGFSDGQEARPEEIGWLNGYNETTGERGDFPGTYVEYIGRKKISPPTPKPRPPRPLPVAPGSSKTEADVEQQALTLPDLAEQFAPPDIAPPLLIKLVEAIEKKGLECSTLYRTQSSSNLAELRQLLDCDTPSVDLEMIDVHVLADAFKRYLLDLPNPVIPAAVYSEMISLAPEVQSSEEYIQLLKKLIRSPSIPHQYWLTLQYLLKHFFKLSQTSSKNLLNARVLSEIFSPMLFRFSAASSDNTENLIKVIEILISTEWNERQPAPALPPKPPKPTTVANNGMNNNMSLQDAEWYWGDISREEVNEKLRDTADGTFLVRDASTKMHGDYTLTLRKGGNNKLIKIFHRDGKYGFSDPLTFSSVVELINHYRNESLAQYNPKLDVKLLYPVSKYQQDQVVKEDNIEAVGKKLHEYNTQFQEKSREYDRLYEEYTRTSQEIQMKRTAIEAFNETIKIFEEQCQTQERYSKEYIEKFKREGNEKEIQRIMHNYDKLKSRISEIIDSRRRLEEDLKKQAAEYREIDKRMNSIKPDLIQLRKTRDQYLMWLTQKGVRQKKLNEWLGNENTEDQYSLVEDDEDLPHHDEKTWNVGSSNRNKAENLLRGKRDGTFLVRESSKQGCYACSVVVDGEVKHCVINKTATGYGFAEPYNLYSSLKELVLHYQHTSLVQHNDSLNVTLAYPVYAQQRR
T1 sequence (P42345 1360-2549 limits assumed): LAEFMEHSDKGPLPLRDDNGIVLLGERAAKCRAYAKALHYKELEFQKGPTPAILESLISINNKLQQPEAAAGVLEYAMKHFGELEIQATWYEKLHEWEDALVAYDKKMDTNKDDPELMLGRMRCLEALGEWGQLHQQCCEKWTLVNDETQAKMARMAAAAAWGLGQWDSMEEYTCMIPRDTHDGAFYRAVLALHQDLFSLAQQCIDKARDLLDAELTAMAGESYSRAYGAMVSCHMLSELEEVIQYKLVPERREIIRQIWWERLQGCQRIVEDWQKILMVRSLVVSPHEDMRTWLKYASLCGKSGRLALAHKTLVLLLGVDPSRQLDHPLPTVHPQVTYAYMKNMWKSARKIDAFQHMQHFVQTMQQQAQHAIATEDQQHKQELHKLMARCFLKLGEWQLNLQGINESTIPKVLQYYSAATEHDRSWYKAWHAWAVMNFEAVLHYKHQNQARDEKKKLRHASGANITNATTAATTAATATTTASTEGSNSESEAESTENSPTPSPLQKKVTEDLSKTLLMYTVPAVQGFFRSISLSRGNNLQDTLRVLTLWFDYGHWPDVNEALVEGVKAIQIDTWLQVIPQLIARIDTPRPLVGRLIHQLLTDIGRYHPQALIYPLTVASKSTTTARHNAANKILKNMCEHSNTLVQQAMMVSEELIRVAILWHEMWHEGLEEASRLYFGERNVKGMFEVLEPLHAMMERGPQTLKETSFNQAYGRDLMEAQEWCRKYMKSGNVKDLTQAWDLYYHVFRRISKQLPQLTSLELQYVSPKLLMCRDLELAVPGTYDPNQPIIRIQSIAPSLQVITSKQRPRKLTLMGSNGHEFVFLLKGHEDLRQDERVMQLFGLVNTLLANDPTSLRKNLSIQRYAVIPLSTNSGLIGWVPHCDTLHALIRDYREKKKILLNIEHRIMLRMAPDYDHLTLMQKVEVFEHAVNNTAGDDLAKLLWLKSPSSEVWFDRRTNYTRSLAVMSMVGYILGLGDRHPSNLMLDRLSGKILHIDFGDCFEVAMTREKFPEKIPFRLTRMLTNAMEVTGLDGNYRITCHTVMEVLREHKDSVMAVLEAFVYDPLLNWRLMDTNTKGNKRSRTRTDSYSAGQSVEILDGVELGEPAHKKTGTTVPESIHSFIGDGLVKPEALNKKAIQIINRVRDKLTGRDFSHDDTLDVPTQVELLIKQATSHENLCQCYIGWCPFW

IC50 [1] [nM] | IC50 [2] [nM] | SMILES
< 100 | < 100 | C[C@H](O)C(=O)N1CCC(n2nnc3cnc4ccc(-c5cnc(N)c(C(F)(F)F)c5)nc4c32)CC1 [Compound 1, (S)-1-(4-(8-(6-amino-5-(trifluoromethyl)pyridin-3-yl)-1H-[1,2,3]triazolo[4,5-c][1,5]naphthyridin-1-yl)piperidin-1-yl)-2-hydroxypropan-1-one]
< 100 | < 100 | CCC(=O)N1CCC(n2nnc3cnc4ccc(-c5cnc(N)c(C(F)(F)F)c5)nc4c32)CC1 [Compound 6]
< 100 | < 100 | COCC(=O)N1CCC(n2nnc3cnc4ccc(-c5cnc(N)c(C(F)(F)F)c5)nc4c32)CC1 [Compound 7]
< 100 | < 100 | Nc1ncc(-c2ccc3ncc4nnn(C5CCN(C(=O)C6CC6)CC5)c4c3n2)cc1C(F)(F)F [Compound 9]
< 100 | < 100 | Nc1ncc(-c2ccc3ncc4nnn(C5CCOCC5)c4c3n2)cc1C(F)(F)F [Compound 10]
< 100 | < 100 | Nc1ncc(-c2ccc3ncc4nnn(Cc5ccc(F)cc5)c4c3c2)cn1 [Compound 12]
< 100 | < 100 | Nc1ncc(-c2ccc3ncc4nnn(-c5ccc6[nH]ncc6c5)c4c3c2)cc1C(F)(F)F [Compound 14]
< 100 | < 100 | CC(C)(C#N)c1ccc(-n2nnc3cnc4ccc(-c5cnc(N)c(C(F)(F)F)c5)nc4c32)cn1 [Compound 16]
< 100 | < 100 | CC(C)(C#N)c1ccc(-n2nnc3cnc4ccc(-c5cnc(N)c(C(F)(F)F)c5)nc4c32)cc1 [Compound 17]
< 100 | < 100 | C[C@@H](O)C(=O)N1CCC(n2nnc3cnc4ccc(-c5cnc(N)c(C(F)(F)F)c5)nc4c32)CC1 [Compound 21, (R)-1-(4-(8-(6-amino-5-(trifluoromethyl)pyridin-3-yl)-1H-[1,2,3]triazolo[4,5-c][1,5]naphthyridin-1-yl)piperidin-1-yl)-2-hydroxypropan-1-one]
< 100 | < 100 | Nc1ncc(-c2ccc3ncc4nnn(C5CCN(C(=O)CO)CC5)c4c3n2)cc1C(F)(F)F [Compound 25]
– | < 100 | Cc1nc2cnc3ccc(-c4cnc(N)c(C(F)(F)F)c4)nc3c2n1C1CCN(CC(=O)N2CCOCC2)CC1 [Compound 124]
– | < 100 | Cc1nc2cnc3ccc(-c4cnc(N)c(C(F)(F)F)c4)nc3c2n1C1CCN(CC(=O)N2CCCC2)CC1 [Compound 125]
– | < 100 | Cc1nc2cnc3ccc(-c4cnc(N)c(C(F)(F)F)c4)nc3c2n1C1CCN(C(=O)[C@@H](C)O)CC1 [Compound 126]
– | < 100 | Cc1ccc(-c2ccc3ncc4nc(C)n(C5CCN(C(=O)[C@H](C)O)CC5)c4c3n2)cn1 [Compound 127]
– | < 100 | Cc1nc2cnc3ccc(-c4cnc(N)c(C(F)(F)F)c4)nc3c2n1C1CCN(Cc2ccccn2)CC1 [Compound 128]
– | < 100 | COCCN1CCC(n2c(C)nc3cnc4ccc(-c5cnc(N)c(C(F)(F)F)c5)nc4c32)CC1 [Compound 130]
– | < 100 | Cc1nc2cnc3ccc(-c4cnc(N)c(C(F)(F)F)c4)nc3c2n1C1CCN(C(=O)c2ccccn2)CC1 [Compound 132]
– | < 100 | Cc1nc2cnc3ccc(-c4cnc(N)c(C(F)(F)F)c4)nc3c2n1C1CCOCC1 [Compound 133]
– | < 100 | Cc1nc2cnc3ccc(-c4cnc5[nH]ncc5c4)nc3c2n1C1CCOCC1 [Compound 134]
– | < 100 | Cc1nc2cnc3ccc(-c4cnc5[nH]ccc5c4)nc3c2n1C1CCOCC1 [Compound 135]
– | < 100 | Cc1cc(-c2ccc3ncc4nc(C)n(C5CCC(N6CCOCC6)CC5)c4c3n2)cnc1N (stereo not shown) [Compound 136]
– | < 100 | Cc1nc2cnc3ccc(-c4cnc(N)c(C(F)(F)F)c4)nc3c2n1C1CCC(N2CCOCC2)CC1 (stereo not shown) [Compound 137]
– | < 100 | Cc1nc2cnc3ccc(-c4cnc(N)c(C(F)(F)F)c4)nc3c2n1C1CCN(S(C)(=O)=O)CC1 [Compound 138]
– | < 100 | COc1ncc(-c2ccc3ncc4nc(C)n(C5CCN(S(C)(=O)=O)CC5)c4c3n2)cn1 [Compound 139]

IC50 [1] [nM] | IC50 [2] [nM] | SMILES
– | < 100 | C=CC(=O)N1CCC(n2c(C)nc3cnc4ccc(-c5cnc(N)c(C(F)(F)F)c5)nc4c32)CC1 [Compound 140]
– | < 100 | Cc1nc2cnc3ccc(-c4cnc(N)c(C(F)(F)F)c4)nc3c2n1CCCN1CCOCC1 [Compound 142]
– | < 100 | COc1ncc(-c2ccc3ncc4nc(C)n(C5CCN(C(=O)C6CC6)CC5)c4c3n2)cc1C(F)(F)F [Compound 143]
– | < 100 | CC#CC(=O)N1CCC(n2c(C)nc3cnc4ccc(-c5cnc(N)c(C(F)(F)F)c5)nc4c32)CC1 [Compound 144]
– | < 100 | C/C=C/C(=O)N1CCC(n2c(C)nc3cnc4ccc(-c5cnc(N)c(C(F)(F)F)c5)nc4c32)CC1 [Compound 145]
– | < 100 | COc1ncc(-c2ccc3ncc4nnc(C)n4c3c2)cc1NS(C)(=O)=O [Compound 150]
– | < 100 | COc1ncc(-c2ccc3ncc4nncn4c3c2)cc1NS(=O)(=O)c1ccc(F)cc1F [Compound 161]
– | < 100 | COc1ncc(-c2ccc3ncc4nnc(C5CC5)n4c3c2)cc1NS(=O)(=O)c1ccc(F)cc1F [Compound 162]
– | < 100 | COc1ncc(-c2ccc3ncc4n[nH]c(=O)n4c3c2)cc1NS(=O)(=O)c1ccc(F)cc1F [Compound 163]
– | < 100 | CCS(=O)(=O)Nc1cc(-c2ccc3ncc4nnc(C)n4c3c2)cnc1OC [Compound 164]
– | < 100 | COc1ncc(-c2ccc3ncc4nnc(C(=O)N5CCCC5)n4c3c2)cc1NS(=O)(=O)C1CC1 [Compound 167]
– | < 100 | COc1ncc(-c2ccc3ncc4nnc(C(=O)N(C)C)n4c3c2)cc1NS(=O)(=O)C1CC1 [Compound 168]
– | < 100 | COc1ncc(-c2ccc3ncc4nnc(C(=O)N(C)C)n4c3c2)cc1NS(=O)(=O)c1ccccc1 [Compound 169]
– | < 100 | COCc1nnc2cnc3ccc(-c4cnc(OC)c(NS(=O)(=O)C5CC5)c4)cc3n12 [Compound 170]
– | < 100 | COc1ncc(-c2ccc3ncc4nnc(CCN5CCOCC5)n4c3c2)cc1NS(C)(=O)=O [Compound 171]
– | < 100 | COc1ncc(-c2ccc3ncc4nnc(CN5CCOCC5)n4c3c2)cc1NS(C)(=O)=O [Compound 172]
– | < 100 | COc1ncc(-c2ccc3ncc4nccn4c3c2)cc1NS(=O)(=O)c1ccc(F)cc1F [Compound 173]
– | < 100 | COc1ncc(-c2ccc3ncc4nnc(CN5CCCC5)n4c3c2)cc1NS(C)(=O)=O [Compound 174]
– | < 100 | COc1ncc(-c2ccc3ncc4nnc(CN5CCCC5)n4c3c2)cc1NS(=O)(=O)c1ccccc1 [Compound 175]
– | < 100 | COc1ncc(-c2ccc3ncc4nccn4c3c2)cc1NS(=O)(=O)C(F)(F)F [Compound 176]
– | < 100 | COc1ncc(-c2ccc3ncc4ncn(CCN5CCOCC5)c4c3n2)cc1NS(C)(=O)=O [Compound 177]
– | < 100 | COc1ncc(-c2ccc3ncc4nnc(C)n4c3c2)cc1NS(=O)(=O)c1ccc(C)cc1 [Compound 179, N-(2-methoxy-5-(1-methyl-[1,2,4]triazolo[4,3-a]quinoxalin-8-yl)pyridin-3-yl)-4-methylbenzenesulfonamide]
– | < 100 | COc1ncc(-c2ccc3ncc4nnc(C)n4c3c2)cc1NS(=O)(=O)c1ccc(F)cc1 [Compound 182]
– | < 100 | CC(C)(C#N)c1ccc(-n2cnc3nnc4ccc(-c5cnc(N)c(C(F)(F)F)c5)cc4c32)cc1 [Compound 183, 2-(4-(8-(6-amino-5-(trifluoromethyl)pyridin-3-yl)-1H-imidazo[4,5-c]cinnolin-1-yl)phenyl)-2-methylpropanenitrile]
– | < 100 | Cc1nc2nnc3ccc(-c4cnc(N)c(C(F)(F)F)c4)cc3c2n1-c1ccc(C(C)(C)C#N)cc1 [Compound 184]
